# Literature values in patent US5186913A, “Tungsten-188/carrier-free rhenium-188 perrhenic acid generator system” (Martin Marietta Energy Systems, Inc., priority 1991, dated 1993).
# Like-named read-outs stand apart in the source and are kept apart here.
# Tests used:
# [1] = not given; remark: listed apart in the source
smiles,measurement,setting,value
"[Re] [Re, Rhenium]",distribution coefficient Dv (amount absorbed per liter resin bed/amount per liter solution),0.1M HNO3,1×10^3
same,distribution coefficient Dv (amount absorbed per liter resin bed/amount per liter solution),6M HNO3,~ 1
"[188Re] [Re-188, Rhenium-188]",energy of gamma photon,[1]; gamma emission,155 keV
same,abundance of gamma photon,[1]; gamma photon of 155 keV,about 15%
same,half-life,[1]; radioactive decay,16.9 h
same,average energy of β emission,[1]; β emission,764 keV
"[188W] [W-188, tungsten-188]",t1/2,"[1]; radioactive decay, parent isotope",69.4 days
